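Results reflect a 48-hour exposure of cells in 96-well plates to compound at five concentrations. TGI marks complete inhibition of growth.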
Tests used:
Test in all cases: NCI anticancer screen, dose series, 48 h
LOX IMVI melanoma = system: LOX IMVI melanoma
LXFL 529 NSCLC = system: LXFL 529 NSCLC
A549 NSCLC = system: A549 NSCLC
HT29 colon = system: HT29 colon
SR leukemia = system: SR leukemia
HOP-62 NSCLC = system: HOP-62 NSCLC
HOP-92 NSCLC = system: HOP-92 NSCLC
UACC-257 melanoma = system: UACC-257 melanoma
OVCAR-5 ovarian = system: OVCAR-5 ovarian
RXF 393 renal = system: RXF 393 renal
EKVX NSCLC = system: EKVX NSCLC
HCC-2998 colon = system: HCC-2998 colon
HCT-15 colon = system: HCT-15 colon
NCI-H522 lung = system: NCI-H522 lung
NCI-H460 lung = system: NCI-H460 lung
ACHN renal = system: ACHN renal
HCT-116 colon = system: HCT-116 colon
SK-MEL-28 melanoma = system: SK-MEL-28 melanoma
SN12C renal = system: SN12C renal
SNB-75 CNS = system: SNB-75 CNS
SNB-78 CNS = system: SNB-78 CNS
MOLT-4 leukemia = system: MOLT-4 leukemia
KM12 colon = system: KM12 colon
SF-539 CNS = system: SF-539 CNS
UACC-62 melanoma = system: UACC-62 melanoma
SK-MEL-5 melanoma = system: SK-MEL-5 melanoma
HL-60(TB) leukemia = system: HL-60(TB) leukemia
OVCAR-4 ovarian = system: OVCAR-4 ovarian
OVCAR-3 ovarian = system: OVCAR-3 ovarian
SF-295 CNS = system: SF-295 CNS
MALME-3M melanoma = system: MALME-3M melanoma
SK-OV-3 ovarian = system: SK-OV-3 ovarian
XF 498 CNS = system: XF 498 CNS
NCI-H23 lung = system: NCI-H23 lung
DLD-1 colon = system: DLD-1 colon
K-562 leukemia = system: K-562 leukemia
KM20L2 colon = system: KM20L2 colon
SW-620 colon = system: SW-620 colon
M14 melanoma = system: M14 melanoma
M19-MEL melanoma = system: M19-MEL melanoma
UO-31 renal = system: UO-31 renal
SK-MEL-2 melanoma = system: SK-MEL-2 melanoma
IGROV1 ovarian = system: IGROV1 ovarian
U251 CNS = system: U251 CNS
TK-10 renal = system: TK-10 renal
CCRF-CEM leukemia = system: CCRF-CEM leukemia
OVCAR-8 ovarian = system: OVCAR-8 ovarian
SNB-19 CNS = system: SNB-19 CNS
SF-268 CNS = system: SF-268 CNS
HOP-18 NSCLC = system: HOP-18 NSCLC
RPMI-8226 leukemia = system: RPMI-8226 leukemia
COLO 205 colon = system: COLO 205 colon
NCI-H226 lung = system: NCI-H226 lung

Measured: TGI

COC1C=CC(O)C(CO)O1 (stereo unspecified)
> 100 µM: LOX IMVI melanoma | LXFL 529 NSCLC | A549 NSCLC | HT29 colon | SR leukemia | HOP-62 NSCLC | HOP-92 NSCLC | UACC-257 melanoma | OVCAR-5 ovarian | RXF 393 renal | EKVX NSCLC | HCC-2998 colon | HCT-15 colon | NCI-H522 lung | NCI-H460 lung | ACHN renal | HCT-116 colon | SK-MEL-28 melanoma | SN12C renal | SNB-75 CNS | SNB-78 CNS | MOLT-4 leukemia | KM12 colon | SF-539 CNS | UACC-62 melanoma | SK-MEL-5 melanoma | HL-60(TB) leukemia | OVCAR-4 ovarian | OVCAR-3 ovarian | SF-295 CNS | MALME-3M melanoma | SK-OV-3 ovarian | XF 498 CNS | NCI-H23 lung | DLD-1 colon | K-562 leukemia | KM20L2 colon | SW-620 colon | M14 melanoma | M19-MEL melanoma | UO-31 renal | SK-MEL-2 melanoma | IGROV1 ovarian | U251 CNS | TK-10 renal | CCRF-CEM leukemia | OVCAR-8 ovarian

COc1cc(C2C(Cl)C(=O)N2NC(=O)c2ccc(NC(C)=O)cc2)cc(OC)c1OC (stereo unspecified)
> 100 µM: LXFL 529 NSCLC | A549 NSCLC | HT29 colon | HOP-62 NSCLC | HOP-92 NSCLC | UACC-257 melanoma | OVCAR-5 ovarian | SNB-19 CNS | NCI-H522 lung | NCI-H460 lung | HCT-116 colon | SK-MEL-28 melanoma | SNB-75 CNS | MOLT-4 leukemia | KM12 colon | SF-539 CNS | UACC-62 melanoma | SK-MEL-5 melanoma | HL-60(TB) leukemia | SF-268 CNS | OVCAR-3 ovarian | SF-295 CNS | MALME-3M melanoma | HOP-18 NSCLC | SK-OV-3 ovarian | NCI-H23 lung | DLD-1 colon | K-562 leukemia | RPMI-8226 leukemia | SW-620 colon | M19-MEL melanoma | UO-31 renal | SK-MEL-2 melanoma | IGROV1 ovarian | COLO 205 colon | U251 CNS | TK-10 renal | CCRF-CEM leukemia | NCI-H226 lung
